For one compound, IC50 results are on record in patent publication US6022873A, “Metalloproteinase inhibitors” (British Biotech Pharmaceuticals Limited, priority 1996, dated 2000).

The assay deals with T1, human fibroblast collagenase (Homo sapiens, UniProt P03956).
T1 sequence (P03956 100-469): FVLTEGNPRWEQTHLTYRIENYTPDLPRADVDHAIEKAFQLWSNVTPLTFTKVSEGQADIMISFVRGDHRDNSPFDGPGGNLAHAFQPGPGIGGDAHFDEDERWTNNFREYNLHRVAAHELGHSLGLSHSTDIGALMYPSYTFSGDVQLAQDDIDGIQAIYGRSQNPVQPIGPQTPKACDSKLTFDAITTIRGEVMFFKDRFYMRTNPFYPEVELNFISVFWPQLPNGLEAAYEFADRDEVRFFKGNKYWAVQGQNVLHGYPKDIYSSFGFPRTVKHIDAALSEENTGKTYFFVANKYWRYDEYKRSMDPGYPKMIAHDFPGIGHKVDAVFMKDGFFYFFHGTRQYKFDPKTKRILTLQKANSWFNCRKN
Nature of the assay: Human fibroblast collagenase inhibition assay (14C-acetylated collagen hydrolysis, Cawston and Barrett). Type of assay: biochemical. Particulars: 37° C., 16 hours, acetylated 14C collagen, 25 mM Hepes pH 7.5; read-out: inhibitor concentration effecting 50% inhibition of the collagenase activity (IC50). Here is the method: The potency of compounds of the present invention as inhibitors of human fibroblast collagenase may be determined by the procedure of Cawston and Barrett, (Anal. Biochem., 99, 340-345, 1979), hereby incorporated by reference, whereby a 1 mM solution of the compound being tested, or a dilution thereof, was incubated at 37° C. for 16 hours with collagen and human fibroblast collagenase (buffered with 25 mM Hepes, pH 7.5 containing 5 mM CaCl2, 0.05% Brij 35 and 0.02% NaN3). The collagen was acetylated ^14 C collagen prepared by the method of Cawston and Murphy, (Methods in Enzymology, 80, 711, 1981), hereby incorporated by reference. The samples were centrifuged to sediment undigested collagen, and an aliquot of the radioactive supernatant removed for assay on a scintillation counter as a measure of hydrolysis.

In the case of `COc1ccc(S(=O)(=O)NCC[C@H](C(=O)NO)[C@@H](CC(C)C)C(=O)N2CCCCC2)cc1` [Example 2, 2S-[(4-Methoxybenzenesulfonyl-amino)-ethyl]-5-methyl-3R-(piperidine-1-carbonyl)-hexanoic acid hydroxyamide], the IC50 is approximately 50 nM.
